100 molecules from ChEMBL document CHEMBL3507680, “University of Dundee, Gates Library screen for HepG2 cell viability” can be followed below.

The series can be described thus: Human HepG2 cell viability assay in 384 well format. It is filed as toxicity, cell-based. Further details: dose 125 nL, time 70.5 hour; concentration not given beside the values. To be noted: HepG2 cells, read-out: Inhibition.
Regarding `COCc1nn(C)c2c1CCN(Cc1cnn(C)c1)C2`, the cytotoxicity at 70.5 h was -5.93%.

Turning to `c1cncc(CNc2cccc(OCCN3CCCCC3)c2)c1`, the cytotoxicity at 70.5 h was -11.5%.

As to `CSCC[C@H](N)c1nnc(SCc2cc(C)ccc2C)o1`, the cytotoxicity at 70.5 h was -5.14%.

Regarding `COCC1CN(C(=O)c2ccc(C)o2)Cc2nccn2C1` (stereo not given), the cytotoxicity at 70.5 h was determined as 14.4%.

As for `CC(C)C1CN(S(=O)(=O)c2ccc(C#N)cc2)CCS1` (stereo not given), the cytotoxicity at 70.5 h was -11.1%.

With `CCc1nc(CN(C)C2CCN(CC(F)(F)F)C2)no1` (stereo not given), the cytotoxicity at 70.5 h was -4.19%.

Consider `CN(C)CCN1C(=O)CO[C@@H]2CN(c3ncc(F)cn3)C[C@H]21`, for which the cytotoxicity at 70.5 h was -6.29%.

`CCSCc1ccc(C(=O)N2CCCN(CC(N)=O)CC2)cc1`: the cytotoxicity at 70.5 h was -5.22%.

With `CC(NC(=O)C1CCN(C(=O)C2CC2)CC1)c1nncn1C(C)C` (stereo not given), the cytotoxicity at 70.5 h was -4.92%.

For `CCS(=O)(=O)CC(C)NC(=O)N(C)Cc1cc(Cl)cn1C` (stereo not given), the cytotoxicity at 70.5 h is -7.58%.

Turning to `CC(=O)N1CCCc2sc(C(=O)Nc3ccc(C)nc3)nc21`, the cytotoxicity at 70.5 h is -1.24%.

`COc1cccc(CC(=O)N2CCC(Cc3nnc(SC)n3C)CC2)c1`: the cytotoxicity at 70.5 h was -23.6%.

`CCC(NC(=O)Nc1ccc(OC)c(C)c1)c1noc(C)n1` (stereo not given): the cytotoxicity at 70.5 h is 4.08%.

As to `CCCNC(=O)Cn1c(C)nn(C(C)(C)C)c1=O`, the cytotoxicity at 70.5 h is 9.3%.

For the molecule `CC(NC(=O)NCc1ccc(Cl)s1)c1ccccn1` (stereo not given), the cytotoxicity at 70.5 h was -20%.

Turning to `Cc1ccc(-n2nc(C)c3c(C)cc(OCC(=O)NC(C)C)nc32)cc1`, the cytotoxicity at 70.5 h is -1.77%.

`Cc1ccc(-n2c(SCC(=O)O)nnc2-c2ccccc2)cc1`: the cytotoxicity at 70.5 h was -7.44%.

On to `COc1ncc(C(=O)NCc2ccccc2)cn1`, for which the cytotoxicity at 70.5 h stood at 0.247%.

On to `O=S(=O)(NCc1ccccc1)Nc1ccc(-n2ccnc2)cc1`, for which the cytotoxicity at 70.5 h is 23.3%.

In the case of `c1nc(N2CCCCC2Cn2cncn2)c2sccc2n1` (stereo not given), the cytotoxicity at 70.5 h was -5.69%.

In the case of `Cc1cccc(C(C(=O)NCCCc2nnc3ccccn23)N(C)C)c1` (stereo not given), the cytotoxicity at 70.5 h is 20.2%.

Regarding `COc1ccc(CN2CCn3cc(Cn4cccn4)nc3C2)cc1`, the cytotoxicity at 70.5 h is 3.13%.

As for `O=C(Nc1cccc(F)c1)C1CCN(Cc2noc(C3CC3)n2)CC1`, the cytotoxicity at 70.5 h was -13.9%.

`CN(C)CC1(O)CCN(C(=O)Cc2ccc3c(c2)CCC3)C1` (stereo not given): the cytotoxicity at 70.5 h stood at 0.63%.

`Cc1cc(=O)[nH]c(SC(C)C(=O)N2CCCN(C3CCCC3)CC2)n1` (stereo not given): the cytotoxicity at 70.5 h is 6.46%.

On to `Cc1nnc(C2CCN(C(=O)c3ccc4[nH]ccc4c3)CC2)s1`, for which the cytotoxicity at 70.5 h was -5.35%.

On to `COCCNc1cc(-c2ccccc2S(N)(=O)=O)c2cc[nH]c2n1`, for which the cytotoxicity at 70.5 h is -7.36%.

With `CC(C)(C)c1cn2nc(N3CCCC3Cn3cncn3)sc2n1` (stereo not given), the cytotoxicity at 70.5 h was -10.8%.

For `Clc1ccccc1C1CN(CCc2ccncc2)CCO1` (stereo not given), the cytotoxicity at 70.5 h is -6.68%.

Consider `CC(C)N(C)Cc1nnc2n1CCCN(S(=O)(=O)C1CC1)C2`, for which the cytotoxicity at 70.5 h was -5.26%.

In the case of `Cc1cc(CN2C[C@@H]3COC[C@]3(CNS(C)(=O)=O)C2)no1`, the cytotoxicity at 70.5 h came to 1.21%.

In the case of `Cc1ccc(C(=O)N(C)CCNS(C)(=O)=O)cc1Br`, the cytotoxicity at 70.5 h is -5.18%.

Turning to `Cc1nc(C2CCCN2CCOCC2CC2)no1` (stereo not given), the cytotoxicity at 70.5 h was -11.1%.

`O=C1CC(NCc2ccccn2)CN1CCc1ccc(F)cc1` (stereo not given): the cytotoxicity at 70.5 h stood at 20.5%.

As for `COc1ccc(S(=O)(=O)N2CCC(Cn3ccnc3)CC2)cc1`, the cytotoxicity at 70.5 h was -6.35%.

In the case of `Cc1ccc(-c2cc(N)c(=O)n(CC(=O)NCC3CCCCC3)n2)s1`, the cytotoxicity at 70.5 h is -16.2%.

As to `NC(=O)CN1CCC(NCc2cc(C(F)(F)F)ccc2Cl)CC1`, the cytotoxicity at 70.5 h is -4.69%.

On to `COCc1nc2n(n1)CCCC2Nc1nc(C)ns1` (stereo not given), for which the cytotoxicity at 70.5 h turned out to be 24.4%.

`O=C(C1CCC1)N1CCC(C2CCN(Cc3ccc(Cl)cc3)C2)CC1` (stereo not given): the cytotoxicity at 70.5 h was -3.08%.

As for `O=C(CN1CCCC1Cn1cncn1)NCCOc1ccccc1` (stereo not given), the cytotoxicity at 70.5 h is -2.53%.

`CC(C)NC(=O)NC[C@H]1OC[C@@H](NCc2cccs2)[C@@H]1O`: the cytotoxicity at 70.5 h amounted to 9.03%.

Take `CCc1nc(C(=O)N(C)CC(=O)N(C)C)nn1-c1ccccc1Cl`: the cytotoxicity at 70.5 h was 27.7%.

On to `Cc1ccc(S(=O)(=O)NCCNC(=O)c2ccoc2)cc1F`, for which the cytotoxicity at 70.5 h came out at 11.8%.

Consider `CC(C)N(CC(=O)Nc1cccc(C(=O)N(C)C)c1)C1CC1`, for which the cytotoxicity at 70.5 h stood at 7.53%.

As to `N#Cc1c(C2CC2)cc(-c2ccc(F)c(F)c2)nc1N`, the cytotoxicity at 70.5 h was -3.46%.

On to `CCN(Cc1cccs1)S(=O)(=O)N(C)C(C)C`, for which the cytotoxicity at 70.5 h is -18.1%.

For the molecule `CCN1CCOC(CNCc2ccccc2OCc2ccccn2)C1` (stereo not given), the cytotoxicity at 70.5 h amounted to 1.15%.

On to `Cc1nn(CCC#N)c(C)c1[C@@H]1C=C[C@@H](NCc2ccc(F)cc2)C1`, for which the cytotoxicity at 70.5 h was -0.333%.

In the case of `CC(C)(C)NCC(=O)N1CCCC(n2ccnc2)C1` (stereo not given), the cytotoxicity at 70.5 h was -9.3%.

As for `CN(C)c1ncnc2c1CCN(CC1CCOCC1)CC2`, the cytotoxicity at 70.5 h was -15%.

Take `CNS(=O)(=O)CC(=O)N1CCCc2cc(Br)ccc21`: the cytotoxicity at 70.5 h was -88.8%.

Take `CCOC1COC2(CCN(Cc3ccc(C)cc3)CC2)C1` (stereo not given): the cytotoxicity at 70.5 h was -11.9%.

On to `Cc1ccc(CN2C[C@H](O)C[C@H]2c2nc(-c3ccc(F)cc3)no2)cc1`, for which the cytotoxicity at 70.5 h was -7.37%.

With `O=C(Cc1cccc(F)c1)NC1CCCc2cn[nH]c21` (stereo not given), the cytotoxicity at 70.5 h was -11.9%.

With `c1ccc(N2CCC3(CCCN(c4ncccn4)C3)C2)nc1` (stereo not given), the cytotoxicity at 70.5 h is 2.93%.

As for `CN(C)CCN(Cc1cccc(C(F)(F)F)c1)C(=O)c1cc[nH]n1`, the cytotoxicity at 70.5 h was -3.41%.

On to `O=C(NC1CCCNC1)c1cc(COc2cccc(C(F)(F)F)c2)[nH]n1` (stereo not given), for which the cytotoxicity at 70.5 h was -0.657%.

`Cc1cc(N2CCC3(CCC(=O)N(CCCO)C3)CC2)nc(N(C)C)n1`: the cytotoxicity at 70.5 h is -2.5%.

`COc1ccccc1Oc1ncccc1CNC(=O)C1COC(=O)N1` (stereo not given): the cytotoxicity at 70.5 h is -14.6%.

For `Cc1ccccc1N1CCCN(c2ccncn2)CC1`, the cytotoxicity at 70.5 h was found to be 2.64%.

Regarding `Cc1nn(-c2ccccc2Cl)c(C)c1CCC(=O)NCCS(C)(=O)=O`, the cytotoxicity at 70.5 h turned out to be 1.1%.

As to `CC(=O)N1CCC2(C1)CN(S(=O)(=O)c1ccccc1)C2`, the cytotoxicity at 70.5 h is -7.01%.

Take `Cc1ccc(C(=O)CN(C2=NCCCCC2)c2ccccc2)cc1`: the cytotoxicity at 70.5 h was -23.6%.

For `CCCc1nc(C)cc(NCCc2nnc(N)s2)n1`, the cytotoxicity at 70.5 h is -12.9%.

As to `O=C(NCCSCc1cccs1)C1CCCN(C(=O)N2CCCC2)C1` (stereo not given), the cytotoxicity at 70.5 h was -6.45%.

As for `COCc1ccc(C(=O)NCCCNc2ccc(C(F)(F)F)cn2)cc1`, the cytotoxicity at 70.5 h was -11.2%.

Take `Cn1ccc(NC(=O)Cc2cccc(F)c2)n1`: the cytotoxicity at 70.5 h is 14.1%.

Consider `CC(Cn1cccn1)NC(=O)c1cccs1` (stereo not given), for which the cytotoxicity at 70.5 h is -9.89%.

Consider `COc1ccc(C(C)N2CCC(CO)CC2)cc1Cl` (stereo not given), for which the cytotoxicity at 70.5 h was -2.59%.

Turning to `CN(Cc1ccc2c(c1)OCO2)Cc1nc(-c2ccco2)no1`, the cytotoxicity at 70.5 h is -10.9%.

Regarding `Cc1ccc(-c2cn[nH]c2C2CCCN(c3ccnc(C)n3)C2)cc1` (stereo not given), the cytotoxicity at 70.5 h is -1.31%.

On to `CCNC(=O)NCc1cccc(N2CC=CC2)c1`, for which the cytotoxicity at 70.5 h turned out to be 1.58%.

Regarding `O=C1CC2(CCN(Cc3ccc(-c4ccccc4)s3)C2)C(=O)N1` (stereo not given), the cytotoxicity at 70.5 h is -3.29%.

On to `COCc1nc(CNC(=O)C(C)n2ccnc2C(C)C)no1` (stereo not given), for which the cytotoxicity at 70.5 h is -9.39%.

`O=C1CC2(CCSC2)C(=O)N1CCCc1ccccc1` (stereo not given): the cytotoxicity at 70.5 h is -5.63%.

With `CN1CCN(C(=O)c2ccccc2)CC(Cc2cc(N(C)C)ncn2)C1` (stereo not given), the cytotoxicity at 70.5 h was -3.72%.

As for `O=C(c1ccoc1)N1CCO[C@]2(CCC[C@H]2COCc2cccnc2)C1`, the cytotoxicity at 70.5 h was -0.748%.

Regarding `CCNC(=O)[C@@H]1C[C@@H](N)CN1C(=O)C1(c2ccc(OC)cc2)CCCC1`, the cytotoxicity at 70.5 h was -9.96%.

On to `Cc1cccnc1CC(C)NC1Cc2ccccc2C1` (stereo not given), for which the cytotoxicity at 70.5 h came out at 5.92%.

Consider `COc1ccc(N2CCN(C(=O)c3nc(Cl)sc3C(C)C)CC2)cc1`, for which the cytotoxicity at 70.5 h was -18.9%.

As for `Cc1ccc(N2CCC3(CCCN(C(=O)c4cnccn4)C3)C2)nn1` (stereo not given), the cytotoxicity at 70.5 h was 1.5%.

`COc1ccc(C(=O)N2CCN(c3cc(CCN)nc(C)n3)CC2)cc1`: the cytotoxicity at 70.5 h is -0.395%.

As for `CC(NCc1c(C(C)C)nn(C)c1N1CCOCC1)C(=O)N(C)C` (stereo not given), the cytotoxicity at 70.5 h is 23%.

Take `CS(=O)(=O)NC[C@H]1Cn2c(-c3ccc(Cl)cc3)cnc2CO1`: the cytotoxicity at 70.5 h is -7.36%.

In the case of `CC1(C)CN(Cc2csc(CS(C)(=O)=O)n2)Cc2ccccc21`, the cytotoxicity at 70.5 h was -0.447%.

As for `COc1cccc(CN2CCC(c3nnc(-c4cnc(C)cn4)o3)C2)c1` (stereo not given), the cytotoxicity at 70.5 h is -13.5%.

With `Cc1nc2cc(C(=O)N(CCC#N)CC3CCCO3)ccc2[nH]1` (stereo not given), the cytotoxicity at 70.5 h is -1.19%.

Take `Cn1cccc1C(=O)N1C[C@@H]2C[C@@H](c3nc(C4CC4)cs3)O[C@@H]2C1`: the cytotoxicity at 70.5 h came to 4.85%.

On to `CNC(=O)CNCC1(O)CCCN(Cc2ccc(F)c(F)c2)C1=O` (stereo not given), for which the cytotoxicity at 70.5 h amounted to 29%.

Consider `Cc1ccc(-c2nc(CN3CCc4nn(C)c(=O)cc4C3)co2)cc1`, for which the cytotoxicity at 70.5 h was -17%.

On to `CC(=O)N(CCc1nc(-c2cc(C(N)=O)co2)cs1)C(C)C`, for which the cytotoxicity at 70.5 h was found to be 2.32%.

`COc1cccc(OCC2CCCN(C(=O)c3ncc(F)cc3F)C2)c1` (stereo not given): the cytotoxicity at 70.5 h came to 1.3%.

On to `Cc1ccc(F)cc1C(=O)NCc1ccc(C(=O)O)o1`, for which the cytotoxicity at 70.5 h worked out at 7.02%.

As to `COc1ccccc1CN(CC1CCCO1)C(=O)c1ccc(F)cn1` (stereo not given), the cytotoxicity at 70.5 h was -9.98%.

Consider `COc1cc(F)ccc1C(C(=O)O)N(C)Cc1ccon1` (stereo not given), for which the cytotoxicity at 70.5 h is -7.03%.

As to `Cc1nc(NC(=O)N(C)Cc2ccoc2)nn1C`, the cytotoxicity at 70.5 h is -4.45%.

Take `CCN(CC1CCCN(CCc2cccc(OC)c2)C1)C(=O)CCSC` (stereo not given): the cytotoxicity at 70.5 h is -6.12%.

In the case of `CN(CCCc1nccn1C)C(=O)C1CCN(C(=O)C2CCC2)CC1`, the cytotoxicity at 70.5 h is 3.53%.

As for `CN(Cc1cccc(C(N)=O)c1)c1ncc(C(N)=O)cc1Cl`, the cytotoxicity at 70.5 h was -9.7%.

In the case of `O=C(NCCC1COc2ccccc2O1)c1ccc(-c2cc[nH]n2)nc1` (stereo not given), the cytotoxicity at 70.5 h is -4.68%.
